#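 Growth conditions: 96-well plates. Treatment: test compound, 48 hours, 5 concentrations. Analysis: linear interpolation between bracketing concentrations; unreached endpoints set to highest concentration. At the TGI there is no net growth.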
# Key:
# Assay in all cases: NCI tumour cell line growth inhibition, 48 h
# [1] = system: NCI-H522 lung
# [2] = system: KM12 colon
# [3] = system: MOLT-4 leukemia
# [4] = system: HCC-2998 colon
# [5] = system: SK-MEL-28 melanoma
# [6] = system: T-47D breast
# [7] = system: SR leukemia
# [8] = system: HL-60(TB) leukemia
# [9] = system: DU-145 prostate
# [10] = system: 786-0 renal
# [11] = system: UACC-257 melanoma
# [12] = system: TK-10 renal
# [13] = system: IGROV1 ovarian
# [14] = system: HS 578T breast
# [15] = system: OVCAR-4 ovarian
# [16] = system: HCT-116 colon
# [17] = system: LOX IMVI melanoma
# [18] = system: COLO 205 colon
# [19] = system: MALME-3M melanoma
# [20] = system: SK-OV-3 ovarian
# [21] = system: PC-3 prostate
# [22] = system: M14 melanoma
# [23] = system: RXF 393 renal
# [24] = system: CCRF-CEM leukemia
# [25] = system: HOP-62 NSCLC
# [26] = system: MDA-MB-435
# [27] = system: NCI-H226 lung
# [28] = system: MDA-N
# [29] = system: MCF7 breast
# [30] = system: NCI-H23 lung
# [31] = system: NCI-H460 lung
# [32] = system: NCI/ADR-RES ovarian
# [33] = system: SK-MEL-2 melanoma
# [34] = system: SF-295 CNS
# [35] = system: HCT-15 colon
# [36] = system: SF-539 CNS
# [37] = system: OVCAR-3 ovarian
# [38] = system: A549 NSCLC
# [39] = system: MDA-MB-231 breast
# [40] = system: SNB-19 CNS
# [41] = system: OVCAR-5 ovarian
# [42] = system: SN12C renal
# [43] = system: RPMI-8226 leukemia
# [44] = system: CAKI-1 renal
# [45] = system: U251 CNS
# [46] = system: A498 renal
# [47] = system: EKVX NSCLC
# [48] = system: SW-620 colon
# [49] = system: UO-31 renal
# [50] = system: HOP-92 NSCLC
# [51] = system: BT-549 breast
# [52] = system: SF-268 CNS
# [53] = system: HT29 colon
# [54] = system: ACHN renal
# [55] = system: OVCAR-8 ovarian
# [56] = system: UACC-62 melanoma
# [57] = system: SK-MEL-5 melanoma
# [58] = system: K-562 leukemia
# [59] = system: SNB-75 CNS
compound,measurement,setting,value
Cc1occc1C(=S)Nc1ccc(Cl)c(COC(C)(C)C)c1,TGI,[1],28.6 µM
same,TGI,[2],31.7 µM
same,TGI,[3],47.9 µM
same,TGI,[4],32.2 µM
same,TGI,[5],30.1 µM
same,TGI,[6],26.9 µM
same,TGI,[7],41.8 µM
same,TGI,[8],45 µM
same,TGI,[9],46.9 µM
same,TGI,[10],30.3 µM
same,TGI,[11],31.3 µM
same,TGI,[12],34.8 µM
same,TGI,[13],31 µM
same,TGI,[14],49.6 µM
same,TGI,[15],33.1 µM
same,TGI,[16],32.1 µM
same,TGI,[17],34 µM
same,TGI,[18],30.6 µM
same,TGI,[19],31.1 µM
same,TGI,[20],34 µM
same,TGI,[21],30.6 µM
same,TGI,[22],43.5 µM
same,TGI,[23],32.3 µM
same,TGI,[24],62.4 µM
same,TGI,[25],44.9 µM
same,TGI,[26],30.7 µM
same,TGI,[27],34.2 µM
same,TGI,[28],34.4 µM
same,TGI,[29],31.6 µM
same,TGI,[30],35.7 µM
same,TGI,[31],31 µM
same,TGI,[32],33.4 µM
same,TGI,[33],33.1 µM
same,TGI,[34],27.9 µM
same,TGI,[35],34.5 µM
same,TGI,[36],31.1 µM
same,TGI,[37],30 µM
same,TGI,[38],41.8 µM
same,TGI,[39],32 µM
same,TGI,[40],48.2 µM
same,TGI,[41],50.6 µM
same,TGI,[42],29.2 µM
same,TGI,[43],50.5 µM
same,TGI,[44],38.9 µM
same,TGI,[45],28.9 µM
same,TGI,[46],32.3 µM
same,TGI,[47],37.1 µM
same,TGI,[48],33.5 µM
same,TGI,[49],26 µM
same,TGI,[50],30.4 µM
same,TGI,[51],33.6 µM
same,TGI,[52],35.9 µM
same,TGI,[53],29.6 µM
same,TGI,[54],31.1 µM
same,TGI,[55],31.5 µM
same,TGI,[56],28.6 µM
same,TGI,[57],33.4 µM
COc1cc(C2c3cc4c(cc3OC(N3CCCC3)C2C)OCO4)cc(OC)c1OC (stereo not drawn),TGI,[1],1.55 µM
same,TGI,[2],3.68 µM
same,TGI,[3],> 18.6 µM
same,TGI,[4],4.32 µM
same,TGI,[5],> 100 µM
same,TGI,[6],> 100 µM
same,TGI,[7],> 17.1 µM
same,TGI,[9],11.3 µM
same,TGI,[10],30 µM
same,TGI,[11],49 µM
same,TGI,[12],30.2 µM
same,TGI,[13],30.2 µM
same,TGI,[14],2.3 µM
same,TGI,[15],80.1 µM
same,TGI,[16],27.7 µM
same,TGI,[17],25.9 µM
same,TGI,[18],1.03 µM
same,TGI,[19],34.7 µM
same,TGI,[20],12.2 µM
same,TGI,[21],> 62.5 µM
same,TGI,[22],12.8 µM
same,TGI,[23],2.41 µM
same,TGI,[24],> 51.9 µM
same,TGI,[25],22.5 µM
same,TGI,[26],1.84 µM
same,TGI,[27],3.19 µM
same,TGI,[28],0.418 µM
same,TGI,[29],4.06 µM
same,TGI,[30],7.27 µM
same,TGI,[31],14.5 µM
same,TGI,[32],0.531 µM
same,TGI,[33],7.56 µM
same,TGI,[34],2.55 µM
same,TGI,[35],13 µM
same,TGI,[58],> 19.1 µM
same,TGI,[36],0.732 µM
same,TGI,[37],0.601 µM
same,TGI,[38],50.4 µM
same,TGI,[39],9.32 µM
same,TGI,[40],15.4 µM
same,TGI,[41],> 47.9 µM
same,TGI,[42],28 µM
same,TGI,[43],> 19.9 µM
same,TGI,[44],12 µM
same,TGI,[45],13.2 µM
same,TGI,[46],7.73 µM
same,TGI,[47],> 95.5 µM
same,TGI,[48],> 33.9 µM
same,TGI,[59],9.4 µM
same,TGI,[49],41.2 µM
same,TGI,[50],21.2 µM
same,TGI,[51],11.5 µM
same,TGI,[52],> 59.3 µM
same,TGI,[53],1.22 µM
same,TGI,[54],38.3 µM
same,TGI,[55],9.82 µM
same,TGI,[56],20.7 µM
same,TGI,[57],5.06 µM
CN(C)NC(=S)Nc1ccccc1Br,TGI,[1],> 100 µM
same,TGI,[2],> 100 µM
same,TGI,[3],> 100 µM
same,TGI,[5],> 100 µM
same,TGI,[6],> 100 µM
same,TGI,[7],> 100 µM
same,TGI,[8],> 100 µM
same,TGI,[9],> 100 µM
same,TGI,[10],> 100 µM
same,TGI,[11],> 100 µM
same,TGI,[12],> 100 µM
same,TGI,[13],> 100 µM
same,TGI,[14],> 100 µM
same,TGI,[15],> 100 µM
same,TGI,[16],> 100 µM
same,TGI,[17],> 100 µM
same,TGI,[18],> 100 µM
same,TGI,[19],> 100 µM
same,TGI,[20],> 100 µM
same,TGI,[21],> 100 µM
same,TGI,[22],> 100 µM
same,TGI,[23],> 100 µM
same,TGI,[24],> 100 µM
same,TGI,[26],> 100 µM
same,TGI,[27],> 100 µM
same,TGI,[28],> 100 µM
same,TGI,[29],> 100 µM
same,TGI,[30],> 100 µM
same,TGI,[31],> 100 µM
same,TGI,[32],> 100 µM
same,TGI,[33],> 100 µM
same,TGI,[34],> 100 µM
same,TGI,[35],> 100 µM
same,TGI,[58],> 100 µM
same,TGI,[36],> 100 µM
same,TGI,[37],> 100 µM
same,TGI,[38],> 100 µM
same,TGI,[39],> 100 µM
same,TGI,[40],> 100 µM
same,TGI,[41],> 100 µM
same,TGI,[43],> 100 µM
same,TGI,[44],> 100 µM
same,TGI,[45],> 100 µM
same,TGI,[46],> 100 µM
same,TGI,[47],> 100 µM
same,TGI,[48],> 100 µM
same,TGI,[59],> 100 µM
same,TGI,[49],> 100 µM
same,TGI,[50],> 100 µM
same,TGI,[51],> 100 µM
same,TGI,[53],> 100 µM
same,TGI,[54],> 100 µM
same,TGI,[55],> 100 µM
same,TGI,[56],> 100 µM
same,TGI,[57],> 100 µM
CC(C)(C)NC(=O)[C@H]1CC[C@H]2[C@@H]3CC=C4NC(=O)CC[C@]4(C)[C@H]3CC[C@]12C,TGI,[1],> 100 µM
same,TGI,[2],> 100 µM
same,TGI,[3],> 100 µM
same,TGI,[4],> 100 µM
same,TGI,[5],> 100 µM
same,TGI,[6],> 100 µM
same,TGI,[7],> 100 µM
same,TGI,[8],> 100 µM
same,TGI,[9],> 100 µM
same,TGI,[10],> 100 µM
same,TGI,[11],> 100 µM
same,TGI,[12],> 100 µM
same,TGI,[13],> 100 µM
same,TGI,[14],> 100 µM
same,TGI,[15],> 100 µM
same,TGI,[16],> 100 µM
same,TGI,[17],> 100 µM
same,TGI,[18],> 100 µM
same,TGI,[19],> 100 µM
same,TGI,[20],> 100 µM
same,TGI,[21],> 100 µM
same,TGI,[22],> 100 µM
same,TGI,[23],> 100 µM
same,TGI,[24],> 100 µM
same,TGI,[25],> 100 µM
same,TGI,[26],> 100 µM
same,TGI,[27],> 100 µM
same,TGI,[28],> 100 µM
same,TGI,[29],> 100 µM
same,TGI,[30],> 100 µM
same,TGI,[31],> 100 µM
same,TGI,[32],> 100 µM
same,TGI,[33],> 100 µM
same,TGI,[34],> 100 µM
same,TGI,[35],> 100 µM
same,TGI,[58],> 100 µM
same,TGI,[36],> 100 µM
same,TGI,[37],> 100 µM
same,TGI,[38],> 100 µM
same,TGI,[39],> 100 µM
same,TGI,[40],> 100 µM
same,TGI,[41],> 100 µM
same,TGI,[42],> 100 µM
same,TGI,[43],> 100 µM
same,TGI,[45],> 100 µM
same,TGI,[46],> 100 µM
same,TGI,[47],> 100 µM
same,TGI,[48],> 100 µM
same,TGI,[59],99 µM
same,TGI,[49],> 100 µM
same,TGI,[50],> 100 µM
same,TGI,[51],> 100 µM
same,TGI,[52],> 100 µM
same,TGI,[53],> 100 µM
same,TGI,[54],> 100 µM
same,TGI,[55],> 100 µM
same,TGI,[56],> 100 µM
same,TGI,[57],> 100 µM

# Reference: PubChem BioAssay (NCI)
